Here are results for 14 compounds from paper PMC10908709, “3-styrylcoumarin scaffold-based derivatives as a new approach for leishmaniasis intervention: biological and molecular modeling studies” (Journal of Parasitic Diseases: Official Organ of the Indian …, 2024).

Values joined by “and” are separate entries in the source; they are usually repeats but may differ in a detail not shown here. Identical values can stand only once.

The subject of series [1] is axenic amastigote forms of L. panamensis. On the set-up: method as in Arango et al. 2010. To be noted: ref Arango et al. 2010; cited from earlier work.
A short description of series [2]: In vitro cytotoxicity, MTT assay. To be noted: human. The series is classed as cell-based. As for the experimental part:
(§1) Cytotoxic activity of the studied compounds was assessed in the human promonocytic U-937 cells (ATCC CRL-1593.2™) based on viability evaluated by the MTT (3-(4,5-dimethylthiazol-2-yl)-2,5-diphenyltetrazolium bromide) assay as described elsewhere (Taylor et al. [2011]). Briefly, U-937 cells grown in tissue flasks were harvested and washed with phosphate buffered saline (PBS) by centrifugation. Cells were counted and adjusted at 1 × 10^6 cells/mL of complete culture medium (RPMI-1640 supplemented with 10% Fetal Bovine Serum-FBS and 1% of antibiotics (100 ug/mL penicillin and 0.1 mg/mL streptomycin). One hundred µL of cell suspension were dispensed into each well of a 96-well cell-culture plate and then 100 µL of two-fold serial dilutions of the compounds (starting at 200 µg/mL) in complete RPMI 1640 medium were added. Plates were incubated at 37 °C, under 5% CO2 atmosphere during 72 h. Then, 10 µL of MTT solution (0.5 mg/mL) were added into each well, and plates were then incubated at 37 °C for 3 h. The formazan crystals were dissolved by adding 100 µL/well of dimethyl sulfoxide and 30 min incubation. Cell viability was determined according to the intensity of color (absorbance) registered as optical densities (O.D) obtained at 570 nm in a Varioskan™ Flash Multimode Reader-ThermoScientific, USA spectrophotometer. Cells cultured in absence of compounds were used as control of viability (negative control), while doxorrubicin was used as control for cytotoxic drugs. Non-specific absorbance was corrected by subtracting the O.D of the blank. Assays were conducted in two independent runs with three replicas per each concentration tested.
(§2) Cytotoxicity was determined according to cell growth (viability) and mortality percentages obtained for each isolated experiment (compounds, doxorubicin and culture medium). Results were expressed as 50 lethal concentrations (LC50), corresponding to the concentration necessary to eliminate 50% of cells, calculated by Probit analysis (Finney [1978]). Percentage of viability was calculated by Eq. 1, where the optical density (O.D) of control corresponds to 100% of viability (cell growth).1 %Mortality=1-O.D Exposed cells/O.D Control cells×100

Series [3] relates to intracellular amastigotes of L. (V) panamensis. The experiment in a line: In vitro antileishmanial activity on intracellular amastigotes (GFP parasites, flow cytometry). The format is cell-based, Leishmania (Viannia) panamensis. To be noted: for inhibition at 20 µg/mL: U-937, 72 h, infected U-937 cells, read-out: Inhibition intracellular amastigotes growth (%).
Series [4] deals with promastigote forms of L. amazonensis. On the set-up: method as in Rosa et al. 2017. To be noted: ref Rosa et al. 2017; read-out: IC50 against promastigote forms of L. amazonensis; cited from earlier work.
In series [5] the test system is amastigote forms of L. amazonensis. Also noted: method as in Rosa et al. 2017. To be noted: ref Rosa et al. 2017; read-out: IC50 against amastigote forms of L. amazonensis; cited from earlier work.
In series [6] the test system is intracellular amastigotes of L. (V) panamensis. Put plainly: In vitro antileishmanial activity on intracellular amastigotes (GFP parasites, flow cytometry). The series is classed as cell-based, Leishmania (Viannia) panamensis. To be noted: for EC50: read-out: Anti-leishmanial activity on intracellular amastigotes EC50 (converted); for SI (selectivity index = LC50/EC50): U-937 LC50 / amastigote EC50. As for the experimental part: The activity of compounds was evaluated on intracellular amastigotes of L. (V) panamensis transfected with the green fluorescent protein gene (MHOM/CO/87/UA140-EGFP) (Pulido et al. [2012]). The effect of each compound was determined according to the inhibition of the infection evidenced by both, decrease of the infected cells and decrease of intracellular parasite amount. Briefly, U-937 human cells at a concentration of 3 × 10^5 cells/mL in RPMI 1640 containing 0.1 μg/mL of phorbol-12-myristate-13-acetate (PMA) were dispensed into each one of a 24-well cell culture plate and then infected with 5 day-old promastigotes in a 15:1 parasites per cell ratio. Plates were incubated at 34 °C, 5% CO2 during 3 h and cells were washed two times with PBS to eliminate non internalized parasites. One mL of fresh complete RPMI 1640 medium supplemented with 10% FBS and 1% antibiotics was added into each well, cells were incubated again to guarantee multiplication of intracellular parasites. After 24 h of infection, culture medium was replaced by fresh culture medium containing each compound at 50–6.12 and 1.56 μg/mL and plates were incubated at 37 °C, 5% CO2. After 72 h, inhibition of the infection was determined. For this, cells were removed from the bottom plate with a trypsin/EDTA (250 mg) solution; recovered cells were centrifuged at 1100 rpm during 10 min at 4 °C, the supernatant was discarded and cells were washed with 1 mL of cold PBS and centrifuged at 1100 rpm during 10 min at 4 °C. The supernatant was discarded and cells were suspended in 500 μL of PBS and analyzed by flow cytometry (FC 500MPL, Cytomics, Brea, CA, US). All determinations for each compound including standard drugs were carried out by triplicate, in two independent experiments. Activity of the tested compounds was carried out in parallel with infection progress in culture medium alone and in culture medium with amphotericin B as antileishmanial drugs (positive controls).
Antileishmanial activity was determined according to percentage of infected cells and parasite amount obtained for each experimental condition by flow cytometer. The percentage of infected cells was determined as the number of positive events by green fluorescence (parasites) in y-axis and Forward Scatte in x-axis. Then, the parasitic load in those infected cells was determined by a histogram of the mean fluorescence intensity (MFI) of those fluorescent parasites (Pulido et al. [2012]).
Parasitemia inhibition was calculated by Eq. 2, where the MFI of control corresponds to 100% of parasitemia. In turn, inhibition percentage corresponds to 100% Parasitemia.

In a further series the test system is U-937 cells. Put plainly: In vitro cytotoxicity, MTT assay. The series is classed as cell-based. As to conditions: 72 h, MTT. As for the experimental part: as §1, §2
The subject of another series is CHO-K1 cells. On the set-up: method as in Herrera et al. 2018. As to conditions: previous study; ref Herrera et al. 2018; cited from earlier work.
The next series has as its system SW480 cells. Also noted: method as in Herrera et al. 2018. As to conditions: previous study; ref Herrera et al. 2018; cited from earlier work.
The test system of series [7] is intracellular amastigotes of L. donovani. Also noted: method as in Pierson et al. 2010. To be noted: ref Pierson et al. 2010; cited from earlier work.

On to `C=C(C)C1OC1c1c(OC)ccc2ccc(=O)oc12` (centres unmarked) [D], for which the “EC50 against axenic amastigote forms of L. panamensis” value (“EC50 against axenic amastigote forms” below) in series [1] is given as 14.1 µg/mL.
As for `CCCCCCCCOc1ccc2c(C)c(/C=C/c3ccc(OC)cc3OC)c(=O)oc2c1` [Compound 5], in [2], the CC50 at 72 h is > 200 µg/mL and > 507 µM. Also, the inhibition at 20 µg/mL in [3] came out at 3.7 ± 0.8%.
Regarding `CCCCCCCCOc1ccc2c(C)c(/C=C/c3cc(OC)ccc3OC)c(=O)oc2c1` [Compound 7], the CC50 at 72 h in series [2] was > 200 µg/mL and > 507 µM. Besides, the inhibition at 20 µg/mL in [3] turned out to be 7.1 ± 1.5%.
Regarding `CCCCCCCCOc1ccc2c(C)c(/C=C/c3ccc4c(c3)OCO4)c(=O)oc2c1` [Compound 9], in series [2], the CC50 at 72 h is > 200 µg/mL and > 529 µM. Also, in series [3], the inhibition at 20 µg/mL amounted to 0%.
On to `CCCCCCCCOc1ccc2c(C)c(/C=C/c3ccc(OC)cc3)c(=O)oc2c1` [Compound 3], for which the CC50 at 72 h in series [2] was > 200 µg/mL and > 549 µM. Further, in series [3], the inhibition at 20 µg/mL amounted to 0%.
On to `CC(=O)OC[C@H]1O[C@@H](Oc2ccc3c(-c4ccccc4)cc(=O)oc3c2)[C@H](OC(C)=O)[C@@H](OC(C)=O)[C@@H]1OC(C)=O` [E], for which the IC50 in series [4] is 10 µM; in series [5] it was 34.9 µM.
Regarding Meglumine antimoniate, in series [6] (72 h), the “Inhibition intracellular amastigotes growth (%)” value was 79.4 ± 2.1^ g %. Further, in series [6] (72 h, Probit), the “Anti-leishmanial activity on intracellular amastigotes EC50” value came to 9.4 ± 2.1 µg/mL and the EC50 was 25.7 µM. Moreover, the “Cytotoxicity on U-937 cells LC50” value in the series with U-937 cells came out at 416.4 ± 66.6 µg/mL. Further, in the series with U-937 cells (read-out: Cytotoxicity on U-937 cells LC50 (converted)), the CC50 was 1140 µM.
As for `COc1ccc2ccc(=O)oc2c1-c1cocc1C` [C], the “EC50 against axenic amastigote forms” value in series [1] is given as 10.5 µg/mL.
With `C=C(C)[C@H]1O[C@@H]1c1c(OC[C@H]2OC2(C)C)ccc2ccc(=O)oc12` (relative stereo) [B], the “EC50 against axenic amastigote forms” value in [1] is reported as 9.9 µg/mL.
Turning to `CCCCCCCCOc1ccc2c(C)c(/C=C/c3ccc(OC)c(OC)c3)c(=O)oc2c1` [Compound 4], the CC50 at 72 h in [2] is 26 µg/mL and 66 µM. The inhibition at 20 µg/mL in series [3] came out at 32.5 ± 0.8%.
`CCCCCCCCOc1ccc2c(C)c(/C=C/c3ccc(O)c(OC)c3)c(=O)oc2c1` [Compound 6]: the EC50 in series [6] (72 h, Probit) was 15.4 µg/mL and 40.5 µM. In series [6], the “SI (selectivity index = LC50/EC50)” value is 1.2. Also, the “Inhibition intracellular amastigotes growth (%)” value in [6] (at 20 µg/ml, 72 h, infected U-937 cells) amounted to 83.5 ± 5.0%. Besides, the IC50 was 40.5 µM in [6] (read-out: IC50 against L. (V.) panamensis amastigotes (abstract)), 69.8 µM in the series on CHO-K1 cells and 26.1 µM in the series on SW480 cells. Besides, in series [2], the CC50 at 72 h is 19.7 µg/mL and 51.8 µM. In [3], the inhibition at 20 µg/mL is > 83%.
Take `C[C@@H]1[C@H](O)[C@@H](C)/C=C/C=C/C=C/C=C/C=C/C=C/C=C/[C@H](O[C@@H]2O[C@H](C)[C@@H](O)[C@H](N)[C@@H]2O)C[C@@H]2O[C@](O)(C[C@@H](O)C[C@@H](O)[C@H](O)CC[C@@H](O)C[C@@H](O)CC(=O)O[C@H]1C)C[C@H](O)[C@H]2C(=O)O` [Amphotericin B, reference compound]: the EC50 in [6] (72 h, Probit) is 0.05 µg/mL and 50 nM. Moreover, the “SI (selectivity index = LC50/EC50)” value in series [6] came out at 722. For the same compound, the CC50 at 72 h in series [2] is 36.1 µg/mL and 39.1 µM. Besides, in series [3] (dose used 0.05 µg/ml, 72 h), testing at 0.05 µg/mL gave an inhibition of growth of 62.7 ± 1.4%.
For `CCCCCCCCOc1ccc2c(C)c(/C=C/c3cc(OC)c(O)c(OC)c3)c(=O)oc2c1` [Compound 8], the CC50 at 72 h in series [2] was 1 µg/mL and 2.4 µM. The compound also displayed an inhibition of growth at 1 µg/mL in series [3] (dose used 1.0 µg/ml, 72 h) of 0%.
With `COc1ccc(-c2cc(=O)oc3cc(OC)c(OC)cc23)cc1OC` [F], the IC50 in series [7] was 1.1 µM.
